Converted amounts (≈) assume the structure as drawn. Read-outs that look alike come from different tables or passages of the source.
Columns and labels:
[1] = test system: wild-type A. baumannii ATCC 17978; assay: Time-kill assay; type: cell-based, Acinetobacter baumannii; settings: 32 μg/mL novobiocin or 0.5 μg/mL rifampicin alone
Experimental: (§1) Overnight-grown bacterial culture diluted in PBS to 0.5 McFarland turbidity was successively diluted 1:50 in lysogeny broth (LB). Cell cultures in the presence of dUSTBβP 3, novobiocin, or rifampicin, or combinations of adjuvant and antibiotic were incubated at 37°C. At designated intervals, 100 μL aliquots acquired from each culture tube were serially diluted in PBS and plated on LB agar plates.

MDR A. baumannii 110193 = assay: Time-kill assay; type: cell-based, Acinetobacter baumannii; settings: 32 μg/mL novobiocin or 0.5 μg/mL rifampicin alone
Experimental: as §1

MDR K. pneumoniae = type: cell-based, Klebsiella pneumoniae; settings: antibiotic alone
Experimental: (§2) The adjuvant activities of dUSTBβPs were evaluated using checkerboard assay as previously described ([Berry et al., 2019]). Overnight-grown bacterial culture diluted in saline to 0.5 McFarland turbidity was successively diluted 1:50 in MHB to achieve a final concentration of 5 × 10^5 CFU/mL for inoculation. The antibiotic and adjuvant were serially diluted 2-fold along the x-axis and y-axis, respectively, resulting in varying concentrations of both agents in each well. Subsequently, the 96-well plate was incubated with equal volumes of bacterial inoculum at 37°C for 18 h. Confirmation of turbidity was done using an EMax Plus microplate reader (Molecular Devices, United States) at a wavelength of 590 nm. Wells comprising MHB alone or in the presence of bacterial cells were used as negative or positive controls, respectively. Fractional inhibitory concentration index (FICI) is determined by adding the FICs of both antibiotic and adjuvant. The FIC of the antibiotic is calculated by dividing the MIC of the antibiotic in the presence of the adjuvant by the MIC of the antibiotic alone. Similarly, the FIC of the adjuvant is calculated by dividing the MIC of the adjuvant in the presence of the antibiotic by the MIC of the adjuvant alone. FICI ≤ 0.5, 0.5 < x ≤ 4, and >4 were deemed synergistic, additive, and antagonistic, respectively ([Meletiadis et al., 2010]).

[2] = test system: wild-type E. coli ATCC 25922; assay: microbe, parasite or virus in culture; type: cell-based, Escherichia coli; settings: ATCC 25922
Procedure, shortened: (§3)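 2-fold antibiotic × adjuvant checkerboard in MHB; inoculum 5 × 10^5 CFU/mL; 37°C, 18 h; OD590 read. FICI = FIC antibiotic + FIC adjuvant; ≤ 0.5 synergistic, 0.5 < x ≤ 4 additive, >4 antagonistic.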

MDR E. coli = type: cell-based, Escherichia coli; settings: 94393; antibiotic alone
Experimental: as §2

[3] = test system: wild-type P. aeruginosa PAO1; assay: microbe, parasite or virus in culture; type: cell-based, Pseudomonas aeruginosa; settings: PAO1
Procedure, shortened: (§4)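 Checkerboard in MHB with 5 × 10^5 CFU/mL inoculum, antibiotic and adjuvant each serially 2-fold diluted on crossed axes. Growth read as turbidity at 590 nm; FICI is the sum of each agent's MIC in combination divided by its MIC alone.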

[4] = test system: MDR clinical isolates of A. baumannii; type: cell-based, Acinetobacter baumannii; settings: antibiotic alone
Procedure, shortened: as §3

[5] = test system: MDR clinical isolates of P. aeruginosa; assay: Checkerboard assay, MDR clinical isolates; type: cell-based, Pseudomonas aeruginosa; settings: antibiotic alone
Experimental: as §2

MDR E. cloacae = assay: Checkerboard assay, MDR clinical isolates; type: cell-based, Enterobacter cloacae; settings: antibiotic alone
Experimental: as §2

[6] = test system: wild-type A. baumannii ATCC 17978; assay: Checkerboard assay; type: cell-based, Acinetobacter baumannii; settings: ATCC 17978
Procedure, shortened: as §4

[7] = in vivo; cited from earlier work
[8] = antibiotic with dUSTBβP 3 at 8 μg/mL

In the case of `CO[C@@H]1[C@@H](OC(N)=O)[C@@H](O)[C@H](Oc2ccc3c(O)c(NC(=O)c4ccc(O)c(CC=C(C)C)c4)c(=O)oc3c2C)OC1(C)C` [Novobiocin], the Time-kill outcome [1] is reported as “Bacteriostatic”, the Time-kill outcome (MDR A. baumannii 110193) is reported as “Bacteriostatic” and the MICantibiotic (MDR K. pneumoniae; 113250) is reported as 128 µg/mL. The MICantibiotic (MDR K. pneumoniae; 113254) was 256 µg/mL, the MICantibiotic (MDR K. pneumoniae; 116381) was 256 µg/mL and the MICantibiotic ([2]; antibiotic alone) was 64 µg/mL. For the same molecule, the MICcombo [2, 8] was 0.125 µg/mL, the MIC ([2]; Escherichia coli, ATCC25922, 18 h, antibiotic alone (Supplementary Table 7), read-out: MICantibiotic) was 64 µg/mL and the MICantibiotic (MDR E. coli) was 64 µg/mL. For the same molecule, the MICantibiotic ([3]; antibiotic alone) was 1,024 μg/mL, the MICcombo [3, 8] was 32 µg/mL and the MIC ([3]; Pseudomonas aeruginosa, 18 h, antibiotic alone (Supplementary Table 7), read-out: MICantibiotic) was 1020 µg/mL (≈ 1670 µM). For the same molecule, the MICantibiotic [4]; 92247 was 4 µg/mL, the MICantibiotic [4]; 110193 was 128 µg/mL and the MICantibiotic ([4]; AB027) was 8 µg/mL. For the same molecule, the MICantibiotic ([4]; AB031) was 4 µg/mL, the MICantibiotic ([4]; LAC-4) was over 0.5 µg/mL and the MICantibiotic ([4]; LAC-4, listed as novobiocin) was 1 µg/mL. The MICantibiotic ([5]; PA259-96196) was 1024 µg/mL, the MICantibiotic ([5]; PA259-96196, listed as novobiocin) was 1,024 μg/mL and the MICantibiotic ([5]; PA262-101856) was 1024 µg/mL. The MICantibiotic ([5]; PA262-101856, listed as novobiocin) was 1,024 μg/mL, the MICantibiotic ([5]; PA264-104354) was 1024 µg/mL and the MICantibiotic ([5]; PA264-104354, listed as novobiocin) was 1,024 μg/mL. The MICantibiotic ([5]; PA91433) was 1024 µg/mL, the MICantibiotic ([5]; PA91433, listed as novobiocin) was 1,024 μg/mL and the MICantibiotic ([5]; PA114228) was 1024 µg/mL. The MICantibiotic ([5]; PA114228, listed as novobiocin) was 1,024 μg/mL, the MICantibiotic (MDR E. cloacae; 117029) was 512 µg/mL and the MICantibiotic (MDR E. cloacae; 118564) was 256 µg/mL. For the same molecule, the MICantibiotic (MDR E. cloacae; 121187) was 16 µg/mL, the MICantibiotic ([6]; antibiotic alone) was 16 µg/mL and the MICcombo [6, 8] was 0.25 µg/mL. For the same molecule, the MIC ([6]; Acinetobacter baumannii, ATCC17978, 18 h, antibiotic alone (Supplementary Table 7), read-out: MICantibiotic) was 16 µg/mL and the Steady-state serum concentration [7] was 5 µg/mL.
